According to paper PMC2819846 (Mutation research, 2008):

What was measured:
Format in all cases: cell-based
[1] = tested on: Salmonella TA104; assay: Salmonella plate-incorporation mutagenicity assay, strain TA104, with S9 mix; details: for Mutagenic potency, Revertants/µg ± S.E., TA104: plate-incorporation, +S9
[2] = tested on: Salmonella TA98; assay: Salmonella plate-incorporation mutagenicity assay, strain TA98, with S9 mix
[3] = tested on: Salmonella TA100; assay: Salmonella plate-incorporation mutagenicity assay, strain TA100; details: for Mutagenic potency, Revertants/µg ± S.E., TA100 / Mutagenicity call TA100: plate-incorporation, +S9
[4] = TA104 +S9, Test 2, 2 µg/plate, zero-dose 276/260/270
[5] = TA104 +S9, Test 3, 2 µg/plate, zero-dose 402/395/336
[6] = TA98 +S9, Test 1, 2 µg/plate, zero-dose 33/40/39
[7] = TA98 +S9, Test 1, 5 µg/plate, zero-dose 33/40/39
[8] = TA98 +S9, Test 1, 10 µg/plate, zero-dose 33/40/39
[9] = TA98 +S9, Test 1, 20 µg/plate, zero-dose 33/40/39
[10] = TA98 +S9, Test 1, 40 µg/plate, zero-dose 33/40/39
[11] = TA98 +S9, Test 1, 80 µg/plate, zero-dose 33/40/39
[12] = TA98 +S9, Test 2, 20 µg/plate, zero-dose 43/41/30
[13] = TA98 +S9, Test 2, 40 µg/plate, zero-dose 43/41/30
[14] = TA98 +S9, Test 2, 80 µg/plate, zero-dose 43/41/30
[15] = TA98 +S9, Test 3, 20 µg/plate, zero-dose 49/50/50
[16] = TA98 +S9, Test 3, 40 µg/plate, zero-dose 49/50/50
[17] = TA100 +S9, Test 1, 2 µg/plate, zero-dose 99/110/110
[18] = TA100 +S9, Test 1, 5 µg/plate, zero-dose 99/110/110
[19] = TA100 +S9, Test 1, 10 µg/plate, zero-dose 99/110/110
[20] = TA100 +S9, Test 1, 20 µg/plate, zero-dose 99/110/110
[21] = TA100 +S9, Test 1, 40 µg/plate, zero-dose 99/110/110
[22] = TA100 +S9, Test 1, 80 µg/plate, zero-dose 99/110/110
[23] = TA100 +S9, Test 2, 5 µg/plate, zero-dose 84/78/80
[24] = TA100 +S9, Test 2, 10 µg/plate, zero-dose 84/78/80
[25] = TA100 +S9, Test 2, 20 µg/plate, zero-dose 84/78/80
[26] = TA100 +S9, Test 3, 5 µg/plate, zero-dose 127/118/125
[27] = TA100 +S9, Test 3, 10 µg/plate, zero-dose 127/118/125
[28] = TA100 +S9, Test 3, 20 µg/plate, zero-dose 127/118/125
[29] = TA104 +S9, Test 2, 5 µg/plate, zero-dose 276/260/270
[30] = TA104 +S9, Test 2, 10 µg/plate, zero-dose 276/260/270
[31] = TA104 +S9, Test 2, 20 µg/plate, zero-dose 276/260/270
[32] = TA104 +S9, Test 3, 5 µg/plate, zero-dose 402/395/336
[33] = TA104 +S9, Test 3, 10 µg/plate, zero-dose 402/395/336
[34] = TA104 +S9, Test 3, 20 µg/plate, zero-dose 402/395/336
[35] = TA98 +S9, Test 2, 10 µg/plate, zero-dose 43/41/30
[36] = TA98 +S9, Test 3, 10 µg/plate, zero-dose 49/50/50
[37] = TA100 +S9, Test 2, 40 µg/plate, zero-dose 84/78/80
[38] = TA100 +S9, Test 3, 40 µg/plate, zero-dose 127/118/125
[39] = TA104 +S9, Test 2, 40 µg/plate, zero-dose 276/260/270

Nc1ccc2cc3ccccc3cc2c1 [2-aminoanthracene, reference compound]
Rev/plate ([1]; TA104 +S9, Test 1, 0.1 µg/plate, zero-dose 379/400/370): 469/478
Rev/plate ([1]; TA104 +S9, Test 1, 0.25 µg/plate, zero-dose 379/400/370): 650/632
Rev/plate ([1]; TA104 +S9, Test 1, 0.5 µg/plate, zero-dose 379/400/370): 849/818
Rev/plate ([1]; TA104 +S9, Test 1, 1 µg/plate, zero-dose 379/400/370): 1004/998
Rev/plate ([1]; TA104 +S9, Test 1, 2 µg/plate, zero-dose 379/400/370): 1335/1432
Rev/plate ([1]; TA104 +S9, Test 2, 0.1 µg/plate, zero-dose 276/260/270): 366/337
Rev/plate ([1]; TA104 +S9, Test 2, 0.25 µg/plate, zero-dose 276/260/270): 521/530
Rev/plate ([1]; TA104 +S9, Test 2, 0.5 µg/plate, zero-dose 276/260/270): 764/666
Rev/plate ([1]; TA104 +S9, Test 2, 1 µg/plate, zero-dose 276/260/270): 983/956
Rev/plate [1, 4]: 1321/1392
Rev/plate ([1]; TA104 +S9, Test 3, 0.1 µg/plate, zero-dose 402/395/336): 444/419
Rev/plate ([1]; TA104 +S9, Test 3, 0.25 µg/plate, zero-dose 402/395/336): 570/588
Rev/plate ([1]; TA104 +S9, Test 3, 0.5 µg/plate, zero-dose 402/395/336): 822/811
Rev/plate ([1]; TA104 +S9, Test 3, 1 µg/plate, zero-dose 402/395/336): 1079/1097
Rev/plate [1, 5]: 1434/1518
Rev/plate ([1]; TA104 +S9, Test 4, 0.1 µg/plate, zero-dose 482/455/462): 573/564
Rev/plate ([1]; TA104 +S9, Test 4, 0.25 µg/plate, zero-dose 482/455/462): 699/711
Rev/plate ([1]; TA104 +S9, Test 4, 0.5 µg/plate, zero-dose 482/455/462): 864/989
Rev/plate ([1]; TA104 +S9, Test 4, 1 µg/plate, zero-dose 482/455/462): 1185/1181

O[C@@H]1c2ccccc2-c2c(ccc3sccc23)[C@H]1O (racemic) [P[3,4-b]T 6,7-diol, (± )-trans-6,7-Dihydrophenanthro[3,4-b]thiophene 6,7-diol]
Rev/plate [2, 6]: 45 rev/plate
Rev/plate [2, 7]: 47 rev/plate
Rev/plate [2, 8]: 61 rev/plate
Rev/plate [2, 9]: 62 rev/plate
Rev/plate [2, 10]: 107 rev/plate
Rev/plate [2, 11]: 130 rev/plate
Rev/plate [2, 12]: 64/63
Rev/plate [2, 13]: 72/84
Rev/plate [2, 14]: 146/141
Rev/plate ([2]; TA98 +S9, Test 2, 150 µg/plate, zero-dose 43/41/30): 207/190
Rev/plate [2, 15]: 90/111
Rev/plate [2, 16]: 132/132
Rev/plate ([2]; TA98 +S9, Test 3, 80 µg/plate, zero-dose 49/50/50): 181/199
Rev/plate ([2]; TA98 +S9, Test 3, 150 µg/plate, zero-dose 49/50/50): 241/222
Mutagenic potency, Revertants/µg ± S.E., TA98 ([2]; plate-incorporation, +S9): 1.4 ± 0.2 rev/µg
Mutagenicity call TA98 ([2]; plate-incorporation, +S9): (+) (Called mutagenic (+) based on showing reproducible, dose-related increases in rev/plate that reached or exceeded 2-fold relative to zero-dose controls)
Rev/plate [3, 17]: 280 rev/plate
Rev/plate [3, 18]: 461 rev/plate
Rev/plate [3, 19]: 580 rev/plate
Rev/plate [3, 20]: 1052 rev/plate
Rev/plate [3, 21]: 1172 rev/plate
Rev/plate [3, 22]: 1286 rev/plate
Rev/plate ([3]; TA100 +S9, Test 2, 2 µg/plate, zero-dose 84/78/80): 224/217
Rev/plate [3, 23]: 369/364
Rev/plate [3, 24]: 746/565
Rev/plate [3, 25]: 593/607
Rev/plate ([3]; TA100 +S9, Test 3, 2 µg/plate, zero-dose 127/118/125): 305/298
Rev/plate [3, 26]: 573/564
Rev/plate [3, 27]: 862/714
Rev/plate [3, 28]: 1142/1113
Mutagenic potency, Revertants/µg ± S.E., TA100 [3]: 59.8 ± 6.1 rev/µg
Mutagenicity call TA100 [3]: (+) (Called mutagenic (+) based on showing reproducible, dose-related increases in rev/plate that reached or exceeded 2-fold relative to zero-dose controls)
Rev/plate [1, 4]: 365/338
Rev/plate [1, 29]: 407/431
Rev/plate [1, 30]: 475/484
Rev/plate [1, 31]: 538/576
Rev/plate [1, 5]: 475/419
Rev/plate [1, 32]: 498/541
Rev/plate [1, 33]: 532/550
Rev/plate [1, 34]: 533/627
Mutagenic potency, Revertants/µg ± S.E., TA104 [1]: 24.9 ± 8.3 rev/µg

O[C@@H]1c2ccccc2-c2c(ccc3ccccc23)[C@H]1O (racemic) [B[c]P 5,6-diol, (± )-trans-5,6-Dihydrobenzo[c]phenanthrene 5,6-diol]
Rev/plate [2, 6]: 31 rev/plate
Rev/plate [2, 7]: 41 rev/plate
Rev/plate [2, 8]: 41 rev/plate
Rev/plate [2, 9]: 29 rev/plate
Rev/plate [2, 10]: 34 rev/plate
Rev/plate [2, 11]: 40 rev/plate
Rev/plate [2, 35]: 43/42
Rev/plate [2, 12]: 27/49
Rev/plate [2, 13]: 46/33
Rev/plate [2, 14]: 52/35
Rev/plate [2, 36]: 51/47
Rev/plate [2, 15]: 46/60
Rev/plate [2, 16]: 51/47
Rev/plate ([2]; TA98 +S9, Test 3, 100 µg/plate, zero-dose 49/50/50): 32/47
Mutagenic potency, Revertants/µg ± S.E., TA98 ([2]; plate-incorporation, +S9): −0.1 ± 0.1 rev/µg
Rev/plate [3, 17]: 132 rev/plate
Rev/plate [3, 18]: 151 rev/plate
Rev/plate [3, 19]: 147 rev/plate
Rev/plate [3, 20]: 192 rev/plate
Rev/plate [3, 21]: 193 rev/plate
Rev/plate [3, 22]: 263 rev/plate
Rev/plate [3, 37]: 161/116
Rev/plate ([3]; TA100 +S9, Test 2, 80 µg/plate, zero-dose 84/78/80): 129/144
Rev/plate ([3]; TA100 +S9, Test 2, 120 µg/plate, zero-dose 84/78/80): 127/129
Rev/plate [3, 38]: 210/248
Rev/plate ([3]; TA100 +S9, Test 3, 80 µg/plate, zero-dose 127/118/125): 306/328
Rev/plate ([3]; TA100 +S9, Test 3, 120 µg/plate, zero-dose 127/118/125): 375/304
Mutagenic potency, Revertants/µg ± S.E., TA100 [3]: 1.6 ± 0.7 rev/µg
Mutagenicity call TA100 [3]: (+) (Called mutagenic (+) based on showing reproducible, dose-related increases in rev/plate that reached or exceeded 2-fold relative to zero-dose controls)
Rev/plate [1, 39]: 457 rev/plate
Rev/plate ([1]; TA104 +S9, Test 2, 80 µg/plate, zero-dose 276/260/270): 506 rev/plate
Rev/plate ([1]; TA104 +S9, Test 2, 120 µg/plate, zero-dose 276/260/270): 507 rev/plate
Mutagenic potency, Revertants/µg ± S.E., TA104 [1]: 2.5 ± 1.2 rev/µg

O[C@@H]1c2ccccc2-c2c(ccc3ccsc23)[C@H]1O (racemic) [P[4,3-b]T 6,7-diol, (±)-trans-6,7-Dihydrophenanthro[4,3-b]thiophene 6,7-diol]
Rev/plate [2, 6]: 34 rev/plate
Rev/plate [2, 7]: 35 rev/plate
Rev/plate [2, 8]: 47 rev/plate
Rev/plate [2, 9]: 52 rev/plate
Rev/plate [2, 10]: 39 rev/plate
Rev/plate [2, 11]: 36 rev/plate
Rev/plate ([2]; TA98 +S9, Test 2, 5 µg/plate, zero-dose 43/41/30): 28/34
Rev/plate [2, 35]: 27/28
Rev/plate [2, 12]: 38/27
Rev/plate [2, 13]: 33/27
Rev/plate ([2]; TA98 +S9, Test 3, 5 µg/plate, zero-dose 49/50/50): 50/53
Rev/plate [2, 36]: 43/47
Rev/plate [2, 15]: 52/47
Rev/plate [2, 16]: 48/50
Mutagenic potency, Revertants/µg ± S.E., TA98 ([2]; plate-incorporation, +S9): −0.2 ± 0.1 rev/µg
Rev/plate [3, 17]: 101 rev/plate
Rev/plate [3, 18]: 128 rev/plate
Rev/plate [3, 19]: 126 rev/plate
Rev/plate [3, 20]: 127 rev/plate
Rev/plate [3, 21]: 132 rev/plate
Rev/plate [3, 22]: 137 rev/plate
Rev/plate [3, 23]: 97/98
Rev/plate [3, 24]: 79/88
Rev/plate [3, 25]: 94/113
Rev/plate [3, 37]: 119/81
Rev/plate [3, 26]: 125/135
Rev/plate [3, 27]: 132/119
Rev/plate [3, 28]: 134/155
Rev/plate [3, 38]: 136/128
Mutagenic potency, Revertants/µg ± S.E., TA100 [3]: 0.4 ± 0.1 rev/µg
Rev/plate [1, 29]: 330/353
Rev/plate [1, 30]: 391/347
Rev/plate [1, 31]: 348/340
Rev/plate [1, 39]: 305/354
Rev/plate [1, 32]: 438/407
Rev/plate [1, 33]: 442/462
Rev/plate [1, 34]: 423/445
Rev/plate ([1]; TA104 +S9, Test 3, 40 µg/plate, zero-dose 402/395/336): 365/373
Mutagenic potency, Revertants/µg ± S.E., TA104 [1]: 9.2 ± 1.3 rev/µg
